Laboratory results: ChEMBL document CHEMBL1144096, “New phenanthrene derivatives from maxillaria densa(1)” (J Nat Prod, 1999)

Tested on: Ileum
Assay: Inhibition of rat ileum contraction
Type: functional, tissue-based

COc1ccc(Cc2nccc3cc(OC)c(OC)cc23)cc1OC [PAPAVERINE]
IC50: 1.55 µM
